# US20240270762A1, “PENICILLIN-BINDING PROTEIN INHIBITORS” (priority 2021, published 2024)
# What was measured:
# [1] = tested on: P. aeruginosa CDC-0110; test: microbe, parasite or virus in culture; assay type: cell-based; conditions: Pseudomonas aeruginosa, CDC0110, read-out: Minimum inhibitory concentration, P. aeruginosa CDC-0110
# [2] = tested on: B. thailandensis ATCC 700388; test: microbe, parasite or virus in culture; assay type: cell-based; conditions: Burkholderia thailandensis, ATCC700388, read-out: Minimum inhibitory concentration (MIC), B. thailandensis ATCC 700388
# [3] = molecular target: T1, PBP3 from Acinetobacter baumannii (ATCC 19606) (Acinetobacter baumannii, UniProt A0ABX6CK25); test: Bocillin-FL fluorescence polarization competition binding, A. baumannii PBP3; conditions: fluorescence polarization competition binding assay using Bocillin-FL; read-out: A. baumannii PBP3 Potency
# T1 sequence (A0ABX6CK25 64-610): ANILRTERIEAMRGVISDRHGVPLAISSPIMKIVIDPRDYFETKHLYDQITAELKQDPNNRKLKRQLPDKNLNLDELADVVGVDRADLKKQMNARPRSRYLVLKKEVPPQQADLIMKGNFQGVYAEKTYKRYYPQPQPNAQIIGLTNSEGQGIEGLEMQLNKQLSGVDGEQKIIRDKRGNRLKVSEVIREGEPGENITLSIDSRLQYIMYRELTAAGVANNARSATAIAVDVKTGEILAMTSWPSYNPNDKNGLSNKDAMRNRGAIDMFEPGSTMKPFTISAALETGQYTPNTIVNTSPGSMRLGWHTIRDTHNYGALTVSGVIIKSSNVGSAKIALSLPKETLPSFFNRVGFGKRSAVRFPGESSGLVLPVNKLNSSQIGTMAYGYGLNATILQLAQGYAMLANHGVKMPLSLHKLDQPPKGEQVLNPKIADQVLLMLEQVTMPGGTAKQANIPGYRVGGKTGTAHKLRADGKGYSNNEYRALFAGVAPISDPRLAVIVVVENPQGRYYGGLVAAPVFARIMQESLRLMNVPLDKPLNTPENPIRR
# In short: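 Purified PBP was preincubated with inhibitor (E. coli PBP3 1.5 μM, 30 min; P. aeruginosa PBP3 0.75 μM, A. baumannii PBP3 0.2 μM and PBP1a 1 μM, 15 min), then Bocillin-FL (0.1 μM; 0.05 μM for PBP1a) added and FP read up to 60 min. EC50 = 50% loss of bound probe.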
# [4] = tested on: A. baumannii CDC-0036; test: microbe, parasite or virus in culture; assay type: cell-based; conditions: Acinetobacter baumannii, CDC0036, read-out: MIC, A. baumannii CDC-0036
# [5] = tested on: N. gonorrhoeae MS11; test: Liquid broth MIC in Fastidious broth; conditions: Neisseria gonorrhoeae, MS11, read-out: Minimum Inhibitory Concentration, MS11
# [6] = tested on: N. gonorrhoeae WHO G; test: Liquid broth MIC in Fastidious broth; conditions: Neisseria gonorrhoeae, read-out: Minimum Inhibitory Concentration, WHO G
# [7] = tested on: A. baumannii 1258916; test: microbe, parasite or virus in culture; assay type: cell-based, Acinetobacter baumannii; conditions: Acinetobacter baumannii, 1258916, read-out: MIC, A. baumannii 1258916
# [8] = tested on: A. baumannii CDC-0033; test: microbe, parasite or virus in culture; assay type: cell-based; conditions: Acinetobacter baumannii, CDC0033, read-out: MIC, A. baumannii CDC-0033
# [9] = tested on: P. aeruginosa CDC-0095; test: microbe, parasite or virus in culture; assay type: cell-based; conditions: Pseudomonas aeruginosa, CDC0095, read-out: Minimum inhibitory concentration, P. aeruginosa CDC-0095
# [10] = tested on: N. gonorrhoeae WHO Q; test: Liquid broth MIC in Fastidious broth; conditions: Neisseria gonorrhoeae, read-out: Minimum Inhibitory Concentration, WHO Q
# [11] = tested on: P. aeruginosa ATCC 27853; test: microbe, parasite or virus in culture; assay type: cell-based; conditions: Pseudomonas aeruginosa, ATCC27853, read-out: Minimum inhibitory concentration, P. aeruginosa ATCC 27853
SMILES,MIC [1] [µg/mL],MIC [2] [µg/mL],IC50 [3] [µM],MIC [4] [µg/mL],MIC [5] [µg/mL],MIC [6] [µg/mL],MIC [7] [µg/mL],MIC [8] [µg/mL],MIC [9] [µg/mL],MIC [10] [µg/mL],MIC [11] [µg/mL]
"O=C(NCCS(=O)(=O)N1CCN(C(=O)N[C@@H](C(=O)N[C@H]2Cc3ccc(F)c(C(=O)O)c3OB2O)c2cc(F)c(O)c(O)c2Cl)C1=O)Nc1cccnc1 [Example 267, (R)-3-((R)-2-(2-chloro-5-fluoro-3,4-dihydroxyphenyl)-2-(2-oxo-3-((2-(3-(pyridin-3-yl)ureido)ethyl)sulfonyl)imidazolidine-1-carboxamido)acetamido)-7-fluoro-2-hydroxy-3,4-dihydro-2H-benzo[e][1,2]oxaborinine-8-carboxylic acid]",2 to 4,2 to 4,< 10,2 to 4,16 to 32,16 to 32,< 1,8 to 16,2 to 4,16 to 32,2 to 4
"O=C(NCCCS(=O)(=O)N1CCN(C(=O)NC(C(=O)N[C@H]2Cc3ccc(F)c(C(=O)O)c3OB2O)c2cc(F)c(O)c(O)c2Cl)C1=O)c1ccccc1 (stereo partly drawn) [Example 268, (3R)-3-(2-(3-((3-benzamidopropyl)sulfonyl)-2-oxoimidazolidine-1-carboxamido)-2-(2-chloro-5-fluoro-3,4-dihydroxyphenyl)acetamido)-7-fluoro-2-hydroxy-3,4-dihydro-2H-benzo[e][1,2]oxaborinine-8-carboxylic acid]",8 to 16,> 128,< 10,2 to 4,16 to 32,16 to 32,< 1,8 to 16,32 to 64,16 to 32,8 to 16
"O=C(NCCCS(=O)(=O)N1CCN(C(=O)NC(C(=O)N[C@H]2Cc3ccc(F)c(C(=O)O)c3OB2O)c2cc(F)c(O)c(O)c2Cl)C1=O)c1ccc(O)cc1 (stereo partly drawn) [Example 269, (3R)-3-(2-(2-chloro-5-fluoro-3,4-dihydroxyphenyl)-2-(3-((3-(4-hydroxybenzamido)propyl)sulfonyl)-2-oxoimidazolidine-1-carboxamido)acetamido)-7-fluoro-2-hydroxy-3,4-dihydro-2H-benzo[e][1,2]oxaborinine-8-carboxylic acid]",8 to 16,> 128,< 10,8 to 16,16 to 32,16 to 32,2 to 4,8 to 16,8 to 16,16 to 32,2 to 4
"O=C(NCCCS(=O)(=O)N1CCN(C(=O)N[C@H](C(=O)N[C@H]2Cc3ccc(F)c(C(=O)O)c3OB2O)c2cc(F)c(O)c(O)c2Cl)C1=O)c1cccc(O)c1 [Example 270, (R)-3-((S)-2-(2-chloro-5-fluoro-3,4-dihydroxyphenyl)-2-(3-((3-(3-hydroxybenzamido)propyl)sulfonyl)-2-oxoimidazolidine-1-carboxamido)acetamido)-7-fluoro-2-hydroxy-3,4-dihydro-2H-benzo[e][1,2]oxaborinine-8-carboxylic acid]",> 128,> 128,< 10,32 to 64,> 64,> 64,8 to 16,32 to 64,> 128,> 64,32 to 64
"O=C(NCCCS(=O)(=O)N1CCN(C(=O)N[C@@H](C(=O)N[C@H]2Cc3ccc(F)c(C(=O)O)c3OB2O)c2cc(F)c(O)c(O)c2Cl)C1=O)c1cccc(O)c1 [Example 271, (R)-3-((R)-2-(2-chloro-5-fluoro-3,4-dihydroxyphenyl)-2-(3-((3-(3-hydroxybenzamido)propyl)sulfonyl)-2-oxoimidazolidine-1-carboxamido)acetamido)-7-fluoro-2-hydroxy-3,4-dihydro-2H-benzo[e][1,2]oxaborinine-8-carboxylic acid]",8 to 16,8 to 16,< 10,2 to 4,16 to 32,16 to 32,< 1,2 to 4,> 128,16 to 32,2 to 4
"O=C(NCCCS(=O)(=O)N1CCN(C(=O)NC(C(=O)N[C@H]2Cc3ccc(F)c(C(=O)O)c3OB2O)c2cc(F)c(O)c(O)c2Cl)C1=O)c1ccncc1 (stereo partly drawn) [Example 272, (3R)-3-(2-(2-chloro-5-fluoro-3,4-dihydroxyphenyl)-2-(3-((3-(isonicotinamido)propyl)sulfonyl)-2-oxoimidazolidine-1-carboxamido)acetamido)-7-fluoro-2-hydroxy-3,4-dihydro-2H-benzo[e][1,2]oxaborinine-8-carboxylic acid]",2 to 4,2 to 4,< 10,2 to 4,16 to 32,16 to 32,2 to 4,8 to 16,> 128,16 to 32,2 to 4
"O=C(NCCCS(=O)(=O)N1CCN(C(=O)NC(C(=O)N[C@H]2Cc3ccc(F)c(C(=O)O)c3OB2O)c2cc(F)c(O)c(O)c2Cl)C1=O)c1cccnc1 (stereo partly drawn) [Example 273, (3R)-3-(2-(2-chloro-5-fluoro-3,4-dihydroxyphenyl)-2-(3-((3-(nicotinamido)propyl)sulfonyl)-2-oxoimidazolidine-1-carboxamido)acetamido)-7-fluoro-2-hydroxy-3,4-dihydro-2H-benzo[e][1,2]oxaborinine-8-carboxylic acid]",< 1,2 to 4,< 10,2 to 4,16 to 32,16 to 32,< 1,2 to 4,32 to 64,16 to 32,2 to 4
"O=C(NCCCS(=O)(=O)N1CCN(C(=O)NC(C(=O)N[C@H]2Cc3ccc(F)c(C(=O)O)c3OB2O)c2cc(F)c(O)c(O)c2Cl)C1=O)c1nccs1 (stereo partly drawn) [Example 274, (3R)-3-(2-(2-chloro-5-fluoro-3,4-dihydroxyphenyl)-2-(2-oxo-3-((3-(thiazole-2-carboxamido)propyl)sulfonyl)imidazolidine-1-carboxamido)acetamido)-7-fluoro-2-hydroxy-3,4-dihydro-2H-benzo[e][1,2]oxaborinine-8-carboxylic acid]",2 to 4,> 128,< 10,2 to 4,16 to 32,16 to 32,< 1,8 to 16,> 128,16 to 32,2 to 4
